Counter-ions that a name gives are not always drawn.
Biological target: GAPDH (endogenous, HeLa / Jurkat) (Homo sapiens, UniProt P04406)
Assay type: biochemical

GAPDH (endogenous, HeLa / Jurkat), sequence (P04406 2-335 limits assumed): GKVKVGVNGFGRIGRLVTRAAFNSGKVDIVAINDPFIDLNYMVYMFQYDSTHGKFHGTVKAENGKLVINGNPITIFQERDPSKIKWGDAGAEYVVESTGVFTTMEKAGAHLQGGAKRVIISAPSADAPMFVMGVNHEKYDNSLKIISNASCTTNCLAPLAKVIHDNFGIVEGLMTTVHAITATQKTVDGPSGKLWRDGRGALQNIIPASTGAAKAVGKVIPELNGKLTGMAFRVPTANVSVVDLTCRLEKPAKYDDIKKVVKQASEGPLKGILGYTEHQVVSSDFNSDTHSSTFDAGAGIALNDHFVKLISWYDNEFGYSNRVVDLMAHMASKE

Row | Compound | loss of SEC1 labeling at 5 μM
1 | O=C(O)C(=O)CBr [3-BP, 3-bromopyruvate] | 3-BP, IA and DMF showed complete loss of SEC1 labeling even at the lower concentration
2 | COC(=O)/C=C/C(=O)OC [DMF, dimethyl fumarate] | 3-BP, IA and DMF showed complete loss of SEC1 labeling even at the lower concentration

From paper PMC9257626 (RSC Chemical Biology, 2022)
